Assay results published in ChEMBL document CHEMBL1201862, “PubChem BioAssay data set” (2004).
Active and inactive are the calls of the source.

How the values were obtained:
[1] = A549 cell cytotoxicity, dose response, cytotoxicity control, plate reader, cherry-pick, antagonist series (AID 743412); format: functional, cell-based
[2] = toxicity toward HepG2 liver cells – cell-based, plate reader, cherry-pick, antagonist series, cytotoxicity control, dose response (AID 743416); format: functional
[3] = blockers of bursicon-stimulated LGR2 cAMP reporter – cell-based, HEK293, CRE-luciferase reporter, cherry pick, set 2, dose response (AID 743343); format: functional;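 note: transfected cells were stimulated with diluted bursicon conditioned medium after compound addition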
[4] = blockade of melanocortin 4 receptor signaling – cell-based, plate reader, cherry pick, counter-screen for LGR2 antagonist project, dose response (AID 743444); format: functional;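 note: transfected HEK 293 cells stimulated with alpha-MSH peptide; potency of inhibitors of the alpha-MSH evoked signal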
[5] = viability loss in HEK293 cells – cell-based, plate reader, cherry-picked samples, cytotoxicity control, dose response (AID 743446); format: functional
[6] = target: Paired box protein Pax-8 (Homo sapiens, UniProt Q06710); assay: PAX8 transcriptional activity inhibition in RMG-I – RMG-I cells, luciferase, cherry-pick, dose response (AID 687027); format: functional, cell-based;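 note: luciferase reporter driven by Pax8 target thyroperoxidase promoter measured by SteadyGlo luminescence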
[7] = reduced cellular PGC1a acetyl-lysine signal – cell-based, cherry-picked samples, dose response (AID 720514); format: functional;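 note: potency may reflect raised or lowered acetylation signal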
[8] = IGROV1 cell killing – plate reader, dry powder samples, PAX8 inhibitor project, dose response (AID 743043); format: functional, cell-based; settings: IGROV-1
[9] = general cell-killing toxicity readout – plate reader, dry powder samples, cytotoxicity control for PAX8 inhibitor project, dose response (AID 743021); format: functional, cell-based
[10] = OVCAR8 cell viability loss – plate reader, dry powder samples, PAX8 project, dose response (AID 743197); format: functional, cell-based; settings: OVCAR-8
[11] = P. falciparum Dd2 growth inhibitors, dose response, SYBR Green, cherry-picked samples (AID 1159567); format: functional, cell-based
[12] = toxicity to human hepatoma HepG2 cells – cell-based, cherry-picked samples, cytotoxicity control, dose response (AID 1159577); format: functional
[13] = target: T1, Methionyl-tRNA synthetase, putative (Trypanosoma brucei brucei, UniProt Q38C91); format: functional, Trypanosoma brucei brucei strain 927/4 GUTat10.1
T1 sequence (Q38C91 whole entry): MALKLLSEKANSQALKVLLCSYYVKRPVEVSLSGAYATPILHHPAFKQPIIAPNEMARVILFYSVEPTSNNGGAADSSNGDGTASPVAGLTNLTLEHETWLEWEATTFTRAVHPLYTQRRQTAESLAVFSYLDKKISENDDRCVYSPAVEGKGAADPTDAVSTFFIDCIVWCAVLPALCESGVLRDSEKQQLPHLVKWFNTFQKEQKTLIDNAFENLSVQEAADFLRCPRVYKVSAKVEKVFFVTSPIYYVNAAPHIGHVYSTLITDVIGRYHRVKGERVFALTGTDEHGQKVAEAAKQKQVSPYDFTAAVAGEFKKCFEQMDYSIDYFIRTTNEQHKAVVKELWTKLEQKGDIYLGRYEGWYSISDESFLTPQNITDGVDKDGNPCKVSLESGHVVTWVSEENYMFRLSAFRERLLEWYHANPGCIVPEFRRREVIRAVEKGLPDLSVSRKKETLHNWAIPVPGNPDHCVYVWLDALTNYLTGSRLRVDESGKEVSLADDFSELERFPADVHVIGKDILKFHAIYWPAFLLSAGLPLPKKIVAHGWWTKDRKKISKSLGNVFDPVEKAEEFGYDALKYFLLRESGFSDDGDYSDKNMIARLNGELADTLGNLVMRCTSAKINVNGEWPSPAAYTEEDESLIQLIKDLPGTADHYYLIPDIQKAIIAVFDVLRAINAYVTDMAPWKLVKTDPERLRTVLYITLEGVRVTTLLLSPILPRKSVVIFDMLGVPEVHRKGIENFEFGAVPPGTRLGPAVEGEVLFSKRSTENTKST

[14] = Counterscreen for inhibitors of Trypanosoma brucei methionyl tRNA synthetase (MetRS): Luminescence-based cell-based high throughput dose response assay to identify compounds that are cytotoxic to Jurkat human T lymphocyte cells.; format: functional
[15] = target: T1, Methionyl-tRNA synthetase, putative; format: functional, Trypanosoma brucei brucei strain 927/4 GUTat10.1; remark: listed apart in the source
[16] = target: Mu-type opioid receptor (Homo sapiens, UniProt P35372); format: functional, cell-based;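 note: U2OS cells with beta-arrestin recruitment to OPRM1 by beta-gal complementation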
[17] = target: 5-hydroxytryptamine receptor 2A (Mus musculus, UniProt P35363); format: functional, cell-based;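 note: CHO-K1 cells with tagged receptor and beta-arrestin; agonist potency measured as compound-induced activation of the receptor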
[18] = target: Beta-galactosidase (Escherichia coli, UniProt Q8VNN2); assay: Dose response counterscreen for EBI2 assay utilizing the enzyme, b-galactosidase.; format: functional
[19] = Luminescence-based cell-based high throughput dose response assay to identify activators of the DAF-12 from the parasite S. stercoralis (ssDAF-12).; format: functional
[20] = target: T2, Small ubiquitin-related modifier 1 (Homo sapiens, UniProt P63165); assay: SUMO1 protein interaction blockers, potency – biochemical, fluorescence polarization, uHTS hits, dose response (AID 624382); format: functional; settings: read-out: IC50_Mean
[21] = target: T2, Small ubiquitin-related modifier 1; assay: SUMO1 protein-protein binding blockers, potency – biochemical, FRET, dose response (AID 624383); format: functional; settings: read-out: IC50_Mean
[22] = target: Peroxisome proliferator-activated receptor gamma/Nuclear receptor coactivator 1 (Homo sapiens, UniProt P37231); assay: (§1) TR-FRET dose response biochemical High Throughput Screening assay for agonists of the steroid receptor coactivator 1 (SRC-1) recruitment by the peroxisome proliferator-activated receptor gamma (PPAR gamma): non-selective agonists. [Related pubchem assays (depositor defined):AID1300, AID1808, AID504735, AID631]; format: protein assay
[23] = target: Peroxisome proliferator-activated receptor gamma/Nuclear receptor coactivator 3 (Homo sapiens, UniProt P37231); assay: as §1, with “3 (SRC-3)” for “1 (SRC-1)”, “assays: 1301 (Confirmation screen.), 1048 (Primary screen.)]” for “assays (depositor defined):AID1300, AID1808, AID504735, AID631]”; format: functional
[24] = target: Peroxisome proliferator-activated receptor gamma/Nuclear receptor coactivator 2 (Homo sapiens, UniProt P37231); assay: TR-FRET dose response biochemical High Throughput Screening assay for agonists of the steroid receptor coactivator 2 (SRC-2) recruitment by the peroxisome proliferator-activated receptor gamma (PPAR gamma): non-selective agonists. [Related pubchem assays: 1297, 1032 ]; format: functional
[25] = target: Major prion protein (Homo sapiens, UniProt P04156); format: functional, cell-based
[26] = cells
[27] = test system: HEK293; assay: inhibition of NOD1-driven NF-kB reporter – cell-based, luminescence, uHTS, primary screen (AID 1578); format: functional; settings: Homo sapiens
[28] = test system: HEK293; assay: cells; format: functional, cell-based; settings: Homo sapiens
[29] = test system: HEK293; assay: cells; format: functional, cell-based; settings: Homo sapiens; remark: listed apart in the source
[30] = test system: HEK293; assay: NOD2 signaling inhibitors in MDP-stimulated cells, cell-based, uHTS, luminescence (AID 2001); format: functional; settings: Homo sapiens
[31] = target: Galanin receptor type 3 (Homo sapiens, UniProt O60755); assay: Fluorescence-based cell-based primary high throughput dose response assay to identify antagonists of the Galanin Receptor 3 (GalR3).; format: functional
[32] = cells; format: functional, cell-based; settings: HEK-CNG
[33] = cells; format: functional, cell-based
[34] = target: T3, Nuclear receptor subfamily 0 group B member 1 (Homo sapiens, UniProt P51843); format: functional, cell-based;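 note: HEK293T cells transfected with SF-1 and DAX-1 plus StAR promoter luciferase reporter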
T3 sequence (P51843 whole entry): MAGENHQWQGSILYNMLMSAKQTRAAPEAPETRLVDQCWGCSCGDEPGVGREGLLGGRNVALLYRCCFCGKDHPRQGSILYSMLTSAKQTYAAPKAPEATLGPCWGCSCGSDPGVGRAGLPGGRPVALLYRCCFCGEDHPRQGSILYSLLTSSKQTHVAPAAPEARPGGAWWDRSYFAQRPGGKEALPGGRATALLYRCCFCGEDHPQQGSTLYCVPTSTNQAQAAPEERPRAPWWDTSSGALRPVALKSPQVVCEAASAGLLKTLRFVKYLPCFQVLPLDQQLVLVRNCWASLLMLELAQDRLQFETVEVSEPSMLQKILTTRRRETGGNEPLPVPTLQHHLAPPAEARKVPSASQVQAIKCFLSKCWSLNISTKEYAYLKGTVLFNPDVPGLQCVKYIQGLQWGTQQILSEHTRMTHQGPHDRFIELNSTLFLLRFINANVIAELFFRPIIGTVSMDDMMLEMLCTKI

[35] = target: Matrix metalloproteinase-14 (Homo sapiens, UniProt P50281); assay: Dose Response confirmation of uHTS hits for a small molecule inhibitors of MT1-MMP activation in a fluorescence assay set 1.; format: functional

COc1cccc2c1C(=O)O/C2=C/c1ccc2c(c1)OCO2
AC50 [1]: > 52 µM (inactive)
AC50 [2]: > 52 µM (inactive)
AC50 [3]: 2.1 µM (active)
AC50 [4]: 2.69 µM (active)
AC50 [5]: > 52 µM (inactive)

COc1ccc2c3c(n(C)c2c1)[C@H](CO)NCC31CCN(Cc2cc(-c3ccccc3)on2)CC1
AC50 [6]: 7.96 µM (active)
AC50 [7]: 12.9 µM (active)
AC50 [8]: 25.1 µM (active)
AC50 [9]: 43 µM (active)
AC50 [10]: 24.1 µM (active)
AC50 [11]: 1.64 µM (active)
AC50 [12]: 7.77 µM (active)

Cc1nnc(NC(=O)CSc2n[nH]c3c4cc(Br)ccc4nc-3n2)s1
IC50 [13]: 3.87 µM (active)
IC50 [14]: 83.3 µM (inactive)
IC50 [15]: 1.36 µM (active)

Cc1ccc(NC(=O)CN2CCN(c3ccccn3)CC2)cc1S(=O)(=O)N(C)C
EC50 [16]: 92.5 µM (inactive)
EC50 [17]: 0.685 µM (active)

Cc1ccc(/C=C/C(=O)N2CCCN(C(=O)/C=C/c3ccc(C)cc3)CC2)cc1
IC50 [18]: > 80 µM (inactive)

COc1ccc(-c2cn3ccccc3n2)cc1OC
IC50 [19]: > 67.5 µM (inactive)

O=C(NCc1cc(C(F)(F)F)ccc1Cl)c1cccc2c1C(=O)c1ccc(N3CCC(N4CCCCC4)CC3)cc1S2(=O)=O
IC50 [20]: > 66.6 µM (inactive)
IC50 [21]: 11.1 µM (active)
AC50 [6]: 11.7 µM (active)
AC50 [9]: 19.7 µM (active)

Cc1ccc(Sc2c(O)c3ccccc3n(C)c2=O)cc1
EC50 [22]: > 79.4 µM (inactive)
EC50 [23]: > 79.4 µM (not active)
EC50 [24]: > 79.4 µM (not active)
IC50 [25]: 7.12 µM (active)
IC50 [26]: > 138 µM (inactive)

CCC(Sc1ccc2nnc(-c3ccc(F)cc3)n2n1)C(=O)O (centres undefined)
IC50 [25]: 13 µM (inactive)
IC50 [26]: > 138 µM (inactive)

Cc1oc(-c2ccc(Cl)cc2)nc1CSCC(=O)NC1CCN(Cc2ccccc2)CC1
EC50 [27]: 2.62 µM (active)
IC50 [28]: 1.68 µM (active)
IC50 [29]: 9.78 µM (active)
IC50 [30]: 3.08 µM (active)
IC50 [31]: 1.29 µM (active)
EC50 [32]: > 29.9 µM (inactive)

c1ccc(Nc2nnc(-c3ccc4c(c3)OCO4)o2)cc1
IC50 [33]: > 67.5 µM (inactive)
IC50 [34]: > 0.0926 µM (active)
AC50 [1]: 10.8 µM (active)
AC50 [2]: 12.3 µM (active)
AC50 [3]: 2.58 µM (active)
AC50 [4]: 2.76 µM (active)
AC50 [5]: 6.3 µM (active)

CN1C2=CC=CC=CC2=[N+](C)C12C=CC(=[N+]([O-])[O-])C=C2[N+](=O)[O-] (centres undefined)
IC50 [35]: 54.2 µM (inactive)
